Consider one molecule from paper doi:10.64898/2025.12.05.692609v2, “Early intervention with a PACAP lactoside following repetitive mild traumatic brain injury prevents persistent LHb hyperactivity and motivational deficits in male mice” (bioRxiv, 2025).

In this assay the test system is LHb neurons. In kind it is in vivo, male C57BL/6 mice.
[1] abbreviates: mTBI+early TES2320: 10 mg/kg i.p. within 30 min after each of 5 injuries, cell-attached V=0, ~4 weeks post-injury, n=138 cells/13 mice.
The mark [2] stands for this setting: mTBI+late TES2320: single 10 mg/kg i.p. injection one month post-mTBI, cell-attached V=0, n=58 cells/5 mice.

Read-outs that look alike come from different tables or passages of the source. Where a SMILES comes first, the peptide text is derived from it. [ ]: non-standard residue; d: D form. The star is where a group is joined. X1 = OC[C@H]1O[C@@H](O[C@H]2[C@H](O)[C@@H](O)[C@H](*)O[C@@H]2CO)[C@H](O)[C@@H](O)[C@H]1O; Nle = CCCC[C@H](N)C(=O)O

In the case of `CCCC[C@H](NC(=O)[C@H](CCC(N)=O)NC(=O)[C@H](CCCCN)NC(=O)[C@H](CCCNC(=N)N)NC(=O)[C@H](Cc1ccc(O)cc1)NC(=O)[C@H](CCCNC(=N)N)NC(=O)[C@H](CO)NC(=O)[C@H](Cc1ccc(O)cc1)NC(=O)[C@H](CO)NC(=O)[C@H](CC(=O)O)NC(=O)[C@@H](NC(=O)[C@H](Cc1ccccc1)NC(=O)[C@@H](NC(=O)CNC(=O)[C@H](CC(=O)O)NC(=O)[C@H](CO)NC(=O)[C@@H](N)Cc1c[nH]cn1)[C@@H](C)CC)[C@@H](C)O)C(=O)N[C@@H](C)C(=O)N[C@H](C(=O)N[C@@H](CCCCN)C(=O)N[C@@H](CCCCN)C(=O)N[C@@H](Cc1ccc(O)cc1)C(=O)N[C@@H](CC(C)C)C(=O)N[C@@H](CO[C@@H]1O[C@H](CO)[C@@H](O[C@@H]2O[C@H](CO)[C@H](O)[C@H](O)[C@H]2O)[C@H](O)[C@H]1O)C(N)=O)C(C)C` [TES2320] (H-HSDGIFTDSYSRYRKQ[Nle]AVKKYLS(X1)-NH2; N-terminus assumed), the “effect on mTBI-induced spontaneous LHb tonic hyperactivity” value (early intervention, 10 mg/kg i.p. x5, vs mTBI+vehicle p<0.01, Chi squared test) is recorded as “prevented”. Also, for the setting “late intervention, single 10 mg/kg i.p. one month post-mTBI, vs mTBI+vehicle p<0.05, Chi squared test”, the “effect on mTBI-induced spontaneous LHb tonic hyperactivity” value is recorded as “reversed”. Also, under setting [1], the “LHb neurons bursting, spontaneous activity” value came out at 4%; the “LHb neurons silent, spontaneous activity” value is on record as 50%; the “LHb neurons tonic, spontaneous activity” value is on record as 46%. Under setting [2], the “LHb neurons bursting, spontaneous activity” value is on record as 5%; the “LHb neurons silent, spontaneous activity” value was determined as 48%; the “LHb neurons tonic, spontaneous activity” value came to 47%.
